Measured values reported in patent US20230114728A1 (Venatorx Pharmaceuticals, Inc., priority 2019, published 2023).
Values after ≈ are worked out from the molar mass of the structure shown.

Experiments:
Assay type in all cases: cell-based
A. baumannii ATCC 19606 = test: Broth microdilution MIC in CAMHB; details: Acinetobacter baumannii, ATCC19606; MHB; read-out: Minimum Inhibitory Concentration, A. baumannii ATCC 19606
Method in brief: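 Hyper-permeable or efflux-deficient strains serve to probe outer-membrane penetration. Growth inhibition is scored visually after 16-20 h at 37° C in CAMHB, starting from 2-8×10^5 CFU/mL.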

E. coli 901C = test: Broth microdilution MIC in CAMHB; details: Escherichia coli; E. coli 901C (hyper-permeable); MHB; read-out: Minimum Inhibitory Concentration, E. coli 901C
Method in brief: (§1)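 Per CLSI broth microdilution, colonies were grown 3-5 h at 37° C in cation-adjusted Mueller Hinton broth, then diluted to a starting inoculum of 2-8×10^5 CFU/mL against 2-fold serial compound dilutions. Plates were incubated 16-20 h at 37° C, and MIC was read visually as the lowest concentration with no growth.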

E. coli AG100 = test: Broth microdilution MIC in CAMHB; details: Escherichia coli; E. coli AG100 (wild-type parent); MHB; read-out: Minimum Inhibitory Concentration, E. coli AG100
Method in brief: as §1

E. coli D22 = test: Broth microdilution MIC in CAMHB; details: Escherichia coli; E. coli D22 (hyper-permeable); MHB; read-out: Minimum Inhibitory Concentration, E. coli D22
Method in brief: as §1

[1] = test system: N. gonorrhoeae ATCC 49226; test: Liquid broth MIC in Fastidious broth; details: Neisseria gonorrhoeae, ATCC49226; N. gonorrhoeae strain ATCC 49226; Fastidious broth; read-out: Minimum Inhibitory Concentration, N. gonorrhoeae ATCC 49226
Method in brief: (§2)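 Colonies were swabbed from chocolate agar after 24 h growth and standardised by optical density at 600 nm. Compounds were serially diluted twofold in Fastidious broth, and bacteria added to give 5×10^5 CFU/mL. After about 24 h at 36 °C in 5% CO2, the lowest concentration allowing under 10% growth was taken as MIC.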

N. gonorrhoeae FA1090 = test: Liquid broth MIC in Fastidious broth; details: Neisseria gonorrhoeae; N. gonorrhoeae strain FA1090; Fastidious broth; read-out: Minimum Inhibitory Concentration, N. gonorrhoeae FA1090
Method in brief: as §2

N. gonorrhoeae H041 = test: Liquid broth MIC in Fastidious broth; details: Neisseria gonorrhoeae, H041, read-out: Minimum Inhibitory Concentration, N. gonorrhoeae H041
Method in brief: as §2

N. gonorrhoeae WHO G = test: Liquid broth MIC in Fastidious broth; details: Neisseria gonorrhoeae; N. gonorrhoeae strain WHO G; Fastidious broth; read-out: Minimum Inhibitory Concentration, N. gonorrhoeae WHO G
Method in brief: as §2

N. gonorrhoeae WHO K = test: Liquid broth MIC in Fastidious broth; details: Neisseria gonorrhoeae, read-out: Minimum Inhibitory Concentration, N. gonorrhoeae WHO K
Method in brief: as §2

N. gonorrhoeae WHO L = test: Liquid broth MIC in Fastidious broth; details: Neisseria gonorrhoeae; N. gonorrhoeae strain WHO L; Fastidious broth; read-out: Minimum Inhibitory Concentration, N. gonorrhoeae WHO L
Method in brief: as §2

N. gonorrhoeae WHO Q = test: Liquid broth MIC in Fastidious broth; details: Neisseria gonorrhoeae, read-out: Minimum Inhibitory Concentration, N. gonorrhoeae WHO Q
Method in brief: as §2

N. gonorrhoeae WHO Z = test: Liquid broth MIC in Fastidious broth; details: Neisseria gonorrhoeae, read-out: Minimum Inhibitory Concentration, N. gonorrhoeae WHO Z
Method in brief: as §2

[2] = test system: K. pneumoniae SI-117 producing VIM-1; test: Broth microdilution MIC in CAMHB; details: Klebsiella pneumoniae, read-out: Minimum Inhibitory Concentration, K. pneumoniae SI-117
Method in brief: as §1

Row | Compound | MIC (A. baumannii ATCC 19606) | MIC (E. coli 901C) | MIC (E. coli AG100) | MIC (E. coli D22) | MIC [1] | MIC (N. gonorrhoeae FA1090) | MIC (N. gonorrhoeae H041) | MIC (N. gonorrhoeae WHO G) | MIC (N. gonorrhoeae WHO K) | MIC (N. gonorrhoeae WHO L) | MIC (N. gonorrhoeae WHO Q) | MIC (N. gonorrhoeae WHO Z) | MIC [2]
1 | CCN1CCN(C(=O)N[C@@H](C(=O)N[C@H]2Cc3cccc(C(=O)O)c3OB2O)c2ccc(C(=O)O)c(Cl)c2)C(=O)C1=O (single isomer, unassigned) [Example 154] | 32 to 64 µg/mL (≈ 54.5 to 109 µM) | < 0.25 µg/mL | 32 to 64 µg/mL (≈ 54.5 to 109 µM) | 2 to 4 µg/mL (≈ 3.41 to 6.82 µM) | 1 to 2 µg/mL (≈ 1.7 to 3.41 µM) | < 0.125 µg/mL | 1 to 2 µg/mL (≈ 1.7 to 3.41 µM) | 0.25 to 0.5 µg/mL (≈ 0.426 to 0.852 µM) | 1 to 2 µg/mL (≈ 1.7 to 3.41 µM) | 4 to 8 µg/mL (≈ 6.82 to 13.6 µM) | 1 to 2 µg/mL (≈ 1.7 to 3.41 µM) | 0.25 to 0.5 µg/mL (≈ 0.426 to 0.852 µM) | 
2 | NCCN1CCN(C(=O)N[C@@H](C(=O)N[C@H]2Cc3ccc(F)c(C(=O)O)c3OB2O)c2cc(F)c(O)c(O)c2Cl)C(=O)C1=O (single isomer, unassigned) [Example 179] |  |  |  |  | > 64 µg/mL | 16 to 32 µg/mL (≈ 25.6 to 51.1 µM) | > 64 µg/mL | 16 to 32 µg/mL (≈ 25.6 to 51.1 µM) | > 64 µg/mL | > 64 µg/mL | > 64 µg/mL | > 64 µg/mL | 
3 | NCCCN1CCN(C(=O)N[C@@H](C(=O)N[C@H]2Cc3ccc(F)c(C(=O)O)c3OB2O)c2cc(F)c(O)c(O)c2Cl)C(=O)C1=O (single isomer, unassigned) [Example 180] |  |  |  |  | 16 to 32 µg/mL (≈ 25 to 50 µM) | 4 to 8 µg/mL (≈ 6.25 to 12.5 µM) | > 64 µg/mL | 16 to 32 µg/mL (≈ 25 to 50 µM) | > 64 µg/mL | > 64 µg/mL | > 64 µg/mL | > 64 µg/mL | 
4 | C[C@@H](O)[C@@H](NC(=O)N1CCN(CCNC(=O)c2c(F)cc(O)c(O)c2Cl)C(=O)C1=O)C(=O)N[C@H]1Cc2ccc(F)c(C(=O)O)c2OB1O [Example 102, (R)-3-((2R,3R)-2-(4-(2-(2-chloro-6-fluoro-3,4-dihydroxybenzamido)ethyl)-2,3-dioxopiperazine-1-carboxamido)-3-hydroxybutanamido)-7-fluoro-2-hydroxy-3,4-dihydro-2H-benzo[e][1,2]oxaborinine-8-carboxylic acid] |  |  |  |  | > 64 µg/mL | 16 to 32 µg/mL (≈ 22.9 to 45.9 µM) | > 64 µg/mL | 16 to 32 µg/mL (≈ 22.9 to 45.9 µM) | > 64 µg/mL | > 64 µg/mL | > 64 µg/mL | > 64 µg/mL | 
5 | CCN1CCN(C(=O)NC(C(=O)N[C@H]2Cc3cccc(C(=O)O)c3OB2O)c2c(F)cc(O)cc2F)C(=O)C1=O (stereo partly drawn) [Example 105, (3R)-3-(2-(2,6-difluoro-4-hydroxyphenyl)-2-(4-ethyl-2,3-dioxopiperazine-1-carboxamido)acetamido)-2-hydroxy-3,4-dihydro-2H-benzo[e][1,2]oxaborinine-8-carboxylic acid] |  | < 0.25 µg/mL | 8 to 16 µg/mL (≈ 14.3 to 28.6 µM) | 0.5 to 1 µg/mL (≈ 0.892 to 1.78 µM) | 4 to 8 µg/mL (≈ 7.14 to 14.3 µM) | < 0.125 µg/mL | 16 to 32 µg/mL (≈ 28.6 to 57.1 µM) | 0.25 to 0.5 µg/mL (≈ 0.446 to 0.892 µM) | 16 to 32 µg/mL (≈ 28.6 to 57.1 µM) | 16 to 32 µg/mL (≈ 28.6 to 57.1 µM) | 4 to 8 µg/mL (≈ 7.14 to 14.3 µM) | 4 to 8 µg/mL (≈ 7.14 to 14.3 µM) | 32 to 64 µg/mL (≈ 57.1 to 114 µM)
6 | NS(=O)(=O)Nc1cccc(C(NC(=O)N2CCN(Cc3c(F)cc(O)c(O)c3Cl)C(=O)C2=O)C(=O)N[C@H]2Cc3cccc(C(=O)O)c3OB2O)c1 (stereo partly drawn) [Example 131, (3R)-3-(2-(4-(2-chloro-6-fluoro-3,4-dihydroxybenzyl)-2,3-dioxopiperazine-1-carboxamido)-2-(3-(sulfamoylamino)phenyl)acetamido)-2-hydroxy-3,4-dihydro-2H-benzo[e][1,2]oxaborinine-8-carboxylic acid] |  |  |  |  | > 64 µg/mL | 16 to 32 µg/mL (≈ 21.4 to 42.7 µM) | > 64 µg/mL | > 64 µg/mL | > 64 µg/mL | > 64 µg/mL | > 64 µg/mL | > 64 µg/mL | 
7 | NS(=O)(=O)c1cc(O)cc(C(NC(=O)N2CCN(Cc3c(F)cc(O)c(O)c3Cl)C(=O)C2=O)C(=O)N[C@H]2Cc3cccc(C(=O)O)c3OB2O)c1 (stereo partly drawn) [Example 132, (3R)-3-(2-(4-(2-chloro-6-fluoro-3,4-dihydroxybenzyl)-2,3-dioxopiperazine-1-carboxamido)-2-(3-hydroxy-5-sulfamoylphenyl)acetamido)-2-hydroxy-3,4-dihydro-2H-benzo[e][1,2]oxaborinine-8-carboxylic acid] |  |  |  |  | > 64 µg/mL | 16 to 32 µg/mL (≈ 21.3 to 42.7 µM) | > 64 µg/mL | > 64 µg/mL | > 64 µg/mL | > 64 µg/mL | > 64 µg/mL | > 64 µg/mL | 
